Laboratory results from patent US20140242707A1, “Compositions and Methods for Diagnosing Hypercoagulability and Hypocoagulability” (Philadelphia Health & Education Corporation d/b/a Drexel …, priority 2011, published 2014).

Legend:
[1] = tested on: Smoker and normal subject plasma; assay: Thrombelastography of smoker and normal subject plasma (COHF assay); format: biochemical, human; conditions: for final elastic modulus (G), within group vs Control: smoker and normal plasma, 100 μM CORM-2 or 30 mM PHA
Description: Smoking subjects, free of thrombotic or hemorrhagic disease, between the ages of 19 to 50 years of age were recruited (n=20). All comparative data are presented as mean±SD. The male:female ratio (M:F) was 14:6, and the smoking group's age was 32.8±8.7 years. This cohort smoked 1.0±0.4 packs of cigarettes per day. After written consent was obtained, the smoking subjects verified that they had smoked two cigarettes within 90 minutes prior to presentation as they would ordinarily do during the day. Noninvasive pulse oximetry was performed, with COHb found to be 5.0±2.7% for the smoking cohort. Whole blood was obtained from the smokers via venipuncture of an antecubital or hand vein and was anticoagulated with sodium citrate (9 parts blood to 1 part citrate). The blood was immediately centrifuged at 3000×g for 15 minutes at room temperature, with plasma decanted, aliquoted and stored at −80° C. prior to experimentation. Frozen, citrated plasma collected from 20 nonsmoking, age-matched normal subjects (30.7±8.7 years, M:F of 10:10) was obtained from a commercial source. Smoker and normal subject plasma was thawed and subjected to thrombelastographic analyses as previously described for 15 min at 37° C. (Nielsen et al., 2011, Blood Coagul Fibrinolysis, 22: 657-661). […] This pattern of enhanced clot development without decreased time to onset of coagulation is typical of CO exposure (Nielsen et al., 2009, Blood Coagul Fibrinolysis, 20: 377-380; Nielsen et al., 2010, Blood Coagul Fibrinolysis, 21: 349-353; Nielsen et al., 2011, Blood Coagul Fibrinolysis, 22: 657-661). […] Using a modification of the previously described assay (Nielsen et al., 2011, Blood Coagul Fibrinolysis, 22: 657-661), hypercoagulability was defined as a G value 95% confidence interval value of the normal cohort (2720 dynes/cm^2). For COHF likely to be present, G values had to increase≦the average percent seen in normal subjects (≦78%) in the presence of CORM-2, and G values had to decrease≦the average normal percent (≦74%) in the presence of PHA. Using these definitions, 10 smokers were hypercoagulable; 9 smokers had kinetically detectable COHF; and 5 were both hypercoagulable and COHF positive (25% of the cohort). Of interest, 3 smokers had neither hypercoagulability nor detectable COHF (15% of the cohort), with the remaining 12 smokers either hypercoagulable only or COHF positive only (60% of the population). […]

[2] = tested on: human plasma; conditions: fibrinolytic environment; cited from earlier work

| SMILES | average percent increase in G ([1]; normal subjects, 100 μM CORM-2) [%] | final elastic modulus (G), within group vs Control [1] | increase in MRTG [2] [%] | increase in TTG [2] [%] | average percent decrease in G ([1]; normal subjects, 30 mM PHA) [%] | decrease in MRTG [2] [%] | decrease in TTG [2] [%] |
| --- | --- | --- | --- | --- | --- | --- | --- |
| [C-]#[O+].[C-]#[O+].[C-]#[O+].[C-]#[O+].[C-]#[O+].[C-]#[O+].[Cl][Ru][Cl].[Cl][Ru][Cl] [CORM-2, tricarbonyldichlororuthenium (II) dimer] | 78 | significantly increased | 120 | 113 | – | – | – |
| ONc1ccccc1 [PHA, phenylhydroxylamine] | – | significantly decreased | – | – | 74 | 30 | 21 |
